Values quoted from earlier work as cited in patent publication US8187640B2, “Low viscosity liquid polymeric delivery system” (Dunn Research & Consulting, LLC, priority 2009, dated 2012).

System: Male Sprague Dawley rats
Settings: given in an aqueous solution

## buprenorphine HCL
  Duration of efficacy in the rat tail flick test: about 5 hours
